Test system: MCF7 cells
Assay: MCF7 cell proliferation assay (ATPlite)
Assay type: cell-based
Conditions: Homo sapiens, 120 hours
Protocol: MCF7 cells were seeded at 1250 cells/well in 50 μl medium/well in black 96 well plates. Cells were incubated for 24 hours before addition of compound. Compounds were diluted in complete medium (50 μl/well) and added to the plates in duplicates. The total volume of medium in the wells was 100 μl, and the final concentration of DMSO 0.5%. Complete medium used was DMEM with GlutaMAX containing 10% FBS and pen/strep.
120 hours after addition of compounds, the plates were harvested and analyzed by ATPlite 1 Step (Perkin Elmer, cat no 6016739) according to the manufactures recommendation. Briefly, 100 μl ATP lite solution was added to each well, plates were vortexed at 700 rpm 2 minutes, followed by 20 minutes incubation in the dark, and then analyzed for luminescence on EnSpire 2300 Mulitilabel reader (Perkin Elmer). EC50 values were calculated using GraphPad Prism 6.

Structure (SMILES) | EC50
CCOC(=O)N(C)c1ccc(COC(=O)c2ccnc(CNCCCCN(CC)CC)c2)cc1 [drawing 277, {4-[(ethoxycarbonyl)(methyl)amino]phenyl}methyl 2-({[4-(diethylamino)butyl]amino}methyl)pyridine-4-carboxylate] | < 1000 nM
CCN(CCN(C)C)C(=O)CNCc1cc(C(=O)Oc2ccc(C(C)(C)C)cc2)ccn1 [drawing 278, 4-tert-butylphenyl 2-{[({[2-(dimethylamino)ethyl](ethyl)carbamoyl}methyl)amino]methyl}pyridine-4-carboxylate] | < 1000 nM
C=CC(CCNC(=O)C(F)(F)F)OC(=O)c1ccnc(CNCC(=O)N(CC)CCN(C)C)c1 (stereo not shown) [drawing 283, 5-(trifluoroacetamido)pent-1-en-3-yl 2-{[({[2-(dimethylamino)ethyl](ethyl)carbamoyl}methyl)amino]methyl}pyridine-4-carboxylate] | < 1000 nM
CCCCCCCCCCCCCCCC(=O)OCC(COC(=O)CCCCCCCCCCCCCCC)OC(=O)c1ccnc(CNCC(=O)N(CC)CCN(C)C)c1 [drawing 285, 2-(2-{[({[2-(dimethylamino)ethyl](ethyl)carbamoyl}methyl)amino]methyl}pyridine-4-carbonyloxy)-3-(hexadecanoyloxy)propyl hexadecanoate] | < 1000 nM
CCCCCCCCCCCCCCCC(=O)OCC(COC(=O)c1ccnc(CNCC(=O)N(CC)CCN(C)C)c1)OC(=O)CCCCCCCCCCCCCCC (stereo not shown) [drawing 286, 1-(2-{[({[2-(dimethylamino)ethyl](ethyl)carbamoyl}methyl)amino]methyl}pyridine-4-carbonyloxy)-3-(hexadecanoyloxy)propan-2-yl hexadecanoate] | < 1000 nM
CCN(CCN(C)C)C(=O)CNCc1cc(C(=O)N2CCOC2=O)ccn1 [drawing 289, N-[2-(dimethylamino)ethyl]-N-ethyl-2-({[4-(2-oxo-1,3-oxazolidine-3-carbonyl)pyridin-2-yl]methyl}amino)acetamide] | 1000 to 50000 nM

Second part, the molecule after the results:

EC50 | Structure (SMILES)
< 1000 nM | CCN(CCN(C)C)C(=O)CNCc1cc(C(=O)OC(C)CC(C)=O)ccn1 (stereo not shown) [drawing 279, 4-oxopentan-2-yl 2-{[({[2-(dimethylamino)ethyl](ethyl)carbamoyl}methyl)amino]methyl}pyridine-4-carboxylate]
< 1000 nM | CCN(CCN(C)C)C(=O)CNCc1cc(C(=O)OC(C)CCNC(=O)C(F)(F)F)ccn1 (stereo not shown) [drawing 280, 4-(trifluoroacetamido)butan-2-yl 2-{[({[2-(dimethylamino)ethyl](ethyl)carbamoyl}methyl)amino]methyl}pyridine-4-carboxylate]
< 1000 nM | CCN(CCN(C)C)C(=O)CNCc1cc(C(=O)OC(C)CCN(C)C(=O)C(F)(F)F)ccn1 (stereo not shown) [drawing 281, 4-(2,2,2-trifluoro-N-methylacetamido)butn-2-yl 2-{[({[2-(dimethylamino)ethyl](ethyl)carbamoyl}methyl)amino]methyl}pyridine-4-carboxylate]
< 1000 nM | CCOC(=O)c1ccnc(CNCC(=O)N(CC)CCN(C)C)c1 [drawing 282, ethyl 2-{[({[2-(dimethylamino)ethyl](ethyl)carbamoyl}methyl)amino]methyl}pyridine-4-carboxylate]
< 1000 nM | C=CC(CCN(C)C(=O)C(F)(F)F)OC(=O)c1ccnc(CNCC(=O)N(CC)CCN(C)C)c1 (stereo not shown) [drawing 284, 5-(2,2,2-trifluoro-N-methylacetamido)pent-1-en-3-yl 2-{[({[2-(dimethylamino)ethyl](ethyl)carbamoyl}methyl)amino]methyl}pyridine-4-carboxylate]
< 1000 nM | CCN(CCN(C)C)C(=O)CNCc1cc(C(=O)OC)ccn1 [drawing 287, methyl 2-{[({[2-(dimethylamino)ethyl](ethyl)carbamoyl}methyl)amino]methyl}pyridine-4-carboxylate]
< 1000 nM | CCN(CCN(C)C)C(=O)CNCc1cc(C(=O)N(C)S(C)(=O)=O)ccn1 [drawing 288, 2-{[({[2-(dimethylamino)ethyl](ethyl)carbamoyl}methyl)amino]methyl}-N-methanesulfonyl-N-methylpyridine-4-carboxamide]

Source: patent publication US10221139B2, “Inhibitors of histone demethylases” (Gilead Sciences, Inc., priority 2012, dated 2019)
